Source: patent US20230192705A1, “SHP2 INHIBITORS, COMPOSITIONS AND USES THEREOF” (Betta Pharmaceuticals Co., Ltd, priority 2020, published 2023)

Target: T1, SHP2 (Homo sapiens, UniProt Q06124)
T1 sequence (Q06124 1-593): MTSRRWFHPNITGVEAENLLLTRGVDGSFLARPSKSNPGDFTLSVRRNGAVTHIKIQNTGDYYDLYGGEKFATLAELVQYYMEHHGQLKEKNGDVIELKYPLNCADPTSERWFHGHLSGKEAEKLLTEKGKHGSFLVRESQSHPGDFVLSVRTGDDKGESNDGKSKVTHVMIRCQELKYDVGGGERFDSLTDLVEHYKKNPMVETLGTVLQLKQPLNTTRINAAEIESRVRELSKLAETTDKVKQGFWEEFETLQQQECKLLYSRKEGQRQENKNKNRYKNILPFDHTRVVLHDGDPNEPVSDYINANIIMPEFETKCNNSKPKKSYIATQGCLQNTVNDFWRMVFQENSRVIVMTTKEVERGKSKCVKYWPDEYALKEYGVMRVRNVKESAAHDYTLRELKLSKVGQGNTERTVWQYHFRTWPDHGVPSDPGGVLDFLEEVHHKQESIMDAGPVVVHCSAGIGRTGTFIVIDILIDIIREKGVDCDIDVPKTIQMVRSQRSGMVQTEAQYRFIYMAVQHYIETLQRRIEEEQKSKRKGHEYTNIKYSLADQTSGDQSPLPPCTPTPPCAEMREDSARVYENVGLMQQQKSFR
Assay: SHP2 allosteric inhibitor enzyme activity assay (DiFMUP fluorescence)
Format: biochemical
Conditions: class symbols
In short: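 SHP2 activated by 0.5 μM IRS1_pY1172(dPEG8)pY1222 peptide, 0.2 ng enzyme per well, 1 h at room temperature with compound (1 μM top, 3-fold series), then DiFMUP substrate 1 h. Buffer: 60 mM HEPES, 75 mM NaCl, 75 mM KCl, 0.05% BRIJ-35, 1 mM EDTA, 5 mM DTT. Fluorescence ex 340/em 450 nm; IC50 by variable-slope fit.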

IC50 [nM] | SMILES
20 to 60 | C[C@@H]1OCC2(CCN(c3nc4[nH]nc(C5(c6cccs6)CC5)c4c(=O)[nH]3)CC2)[C@@H]1N [Example 278, 6-((3S,4S)-4-amino-3-methyl-2-oxa-8-azaspiro[4.5]decan-8-yl)-3-(1-(thiophen-2-yl)cyclopropyl)-1,5-dihydro-4H-pyrazolo[3,4-d]pyrimidin-4-one]
≤ 20 | N[C@@H]1c2ccccc2CC12CCN(c1nc3[nH]nc(C4=CCOc5ccccc54)c3c(=O)[nH]1)CC2 [Example 173, (S)-6-(1-amino-1,3-dihydrospiro[indene-2,4′-piperidin]-1′-yl)-3-(2H-chromen-4-yl)-1,5-dihydro-4H-pyrazolo[3,4-d]pyrimidin-4-one]
20 to 60 | C[C@@H]1OCC2(CCN(c3nc4[nH]nc(C5(c6ccccc6)CC5)c4c(=O)[nH]3)CC2)[C@@H]1N [Example 270, 6-((3S,4S)-4-amino-3-methyl-2-oxa-8-azaspiro[4.5]decan-8-yl)-3-(1-phenylcyclopropyl)-1,5-dihydro-4H-pyrazolo[3,4-d]pyrimidin-4-one]
≤ 20 | CC1(C)C=C(c2n[nH]c3nc(N4CCC5(CC4)Cc4ccccc4[C@H]5N)[nH]c(=O)c23)c2ccccc21 [Example 176, (S)-6-(1-amino-1,3-dihydrospiro[indene-2,4′-piperidin]-1′-yl)-3-(1,1-dimethyl-1H-inden-3-yl)-1,5-dihydro-4H-pyrazolo[3,4-d]pyrimidin-4-one]
≤ 20 | N[C@@H]1c2ccccc2CC12CCN(c1nc3[nH]nc(C4(c5ccnc(OC6CC6)c5)CC4)c3c(=O)[nH]1)CC2 [Example 30, (S)-6-(1-amino-1,3-dihydrospiro[indene-2,4′-piperidin]-1′-yl)-3-(1-(2-cyclopropoxypyridin-4-yl)cyclopropyl)-1,5-dihydro-4H-pyrazolo[3,4-d]pyrimidin-4-one]
≤ 20 | N[C@@H]1c2ccccc2CC12CCN(c1nc3[nH]nc(C4(c5ccnc6c5CCCN6)CC4)c3c(=O)[nH]1)CC2 [Example 79, (S)-6-(1-amino-1,3-dihydrospiro[indene-2,4′-piperidin]-1′-yl)-3-(1-(5,6,7,8-tetrahydro-1,8-naplitliyridin-4-yl)cyclopropyl)-1,5-dihydro-4H-pyrazolo[3,4-d]pyrimidin-4-one]
≤ 20 | N[C@@H]1c2ccccc2CC12CCN(c1nc3[nH]nc(C4(c5cccc(CO)c5)CC4)c3c(=O)[nH]1)CC2 [Example 226, (S)-6-(1-amino-1,3-dihydrospiro[indene-2,4′-piperidin]-1′-yl)-3-(1-(3-(hydroxymethyl)phenyl)cyclo-propyl)-1,5-dihydro-4H-pyrazolo[3,4-d]pyrimidin-4-one]
≤ 20 | N[C@@H]1c2ccccc2CC12CCN(c1nc3[nH]nc(C4(c5ccnc(-c6ccccn6)c5)CC4)c3c(=O)[nH]1)CC2 [Example 87, (S)-3-(1-([2,2′-bipyridin]-4-yl)cyclopropyl)-6-(1-amino-1,3-dihydrospiro[indene-2,4′-piperidin]-1′-yl)-1,5-dihydro-4H-pyrazolo[3,4-d]pyrimidin-4-one]
≤ 20 | N[C@@H]1c2ccccc2CC12CCN(c1nc3[nH]nc(C4=CCCc5ncccc54)c3c(=O)[nH]1)CC2 [Example 112, (S)-6-(1-amino-1,3-dihydrospiro[indene-2,4′-piperidin]-1′-yl)-3-(7,8-dihydroquinolin-5-yl)-1,5-dihydro-4H-pyrazolo[3,4-d]pyrimidin-4-one]
≤ 20 | N[C@@H]1c2ccccc2CC12CCN(c1cnc3c([C@H]4C[C@H]4c4ccccc4)n[nH]c3n1)CC2 [Example 106, (S)-1′-(3-((1S,2R)-2-phenylcyclopropyl)-1H-pyrazolo[3,4-b]pyrazin-6-yl)-1,3-dihydrospiro[indene-2,4′-piperidin]-1-amine]
20 to 60 | C[C@@H]1OCC2(CCN(c3nc4[nH]nc(C5(c6ccncn6)CC5)c4c(=O)[nH]3)CC2)[C@@H]1N [Example 273, 6-((3S,4S)-4-amino-3-methyl-2-oxa-8-azaspiro[4.5]decan-8-yl)-3-(1-(pyrimidin-4-yl)cyclopropyl)-1,5-dihydro-4H-pyrazolo[3,4-d]pyrimidin-4-one]
≤ 20 | N[C@@H]1c2ccccc2CC12CCN(c1nc3[nH]nc(C4=CCOc5ncccc54)c3c(=O)[nH]1)CC2 [Example 116, (S)-6-(1-amino-1,3-dihydrospiro[indene-2,4′-piperidin]-1′-yl)-3-(2H-pyrano[2,3-b]pyridin-4-yl)-1,5-dihydro-4H-pyrazolo[3,4-d]pyrimidin-4-one]
≤ 20 | N[C@@H]1c2ccccc2CC12CCN(c1nc3[nH]nc(C4(c5ccnc(N6CCC6)c5Cl)CC4)c3c(=O)[nH]1)CC2 [Example 66, (S)-6-(1-amino-1,3-dihydrospiro[indene-2,4′-piperidin]-1′-yl)-3-(1-(2-(azetidin-1-yl)-3-chloropyridin-4-yl)cyclopropyl)-1,5-dihydro-4H-pyrazolo[3,4-d]pyrimidin-4-one]
≤ 20 | CC1(C)C=C(c2n[nH]c3nc(N4CCC5(CC4)Cc4ccccc4[C@H]5N)[nH]c(=O)c23)c2ccc(C#N)nc2C1 [Example 162, (S)-5-(6-(1-amino-1,3-dihydrospiro[indene-2,4′-piperidin]-1′-yl)-4-oxo-4,5-dihydro-1H-pyrazolo[3,4-d]pyrimidin-3-yl)-7,7-dimethyl-7,8-dihydroquinoline-2-carbonitrile]
20 to 60 | C[C@@H]1OCC2(CCN(c3nc4[nH]nc(C5(c6ncco6)CC5)c4c(=O)[nH]3)CC2)[C@@H]1N [Example 279, 6-((3S,4S)-4-amino-3-methyl-2-oxa-8-azaspiro[4.5]decan-8-yl)-3-(1-(oxazol-2-yl)cyclopropyl)-1,5-dihydro-4H-pyrazolo[3,4-d]pyrimidin-4-one]
20 to 60 | C[C@@H]1OCC2(CCN(c3nc4[nH]nc(C5(c6cccc(C(F)(F)F)c6)CC5)c4c(=O)[nH]3)CC2)[C@@H]1N [Example 297, 6-((3S,4S)-4-amino-3-methyl-2-oxa-8-azaspiro[4.5]decan-8-yl)-3-(1-(3-(trifluoromethyl)phenyl)cyclopropyl)-1,5-dihydro-4H-pyrazolo[3,4-d]pyrimidin-4-one]
≤ 20 | N[C@@H]1c2ccccc2CC12CCN(c1nc3[nH]nc(C4=CCS(=O)(=O)c5ccccc54)c3c(=O)[nH]1)CC2 [Example 180, (S)-6-(1-amino-1,3-dihydrospiro[indene-2,4′-piperidin]-1′-yl)-3-(1,1-dioxido-2H-thiochromen-4-yl)-1,5-dihydro-4H-pyrazolo[3,4-d]pyrimidin-4-one]
≤ 20 | N[C@@H]1c2ccccc2CC12CCN(c1nc3[nH]nc(C4(c5coc6ccccc56)CC4)c3c(=O)[nH]1)CC2 [Example 250, (S)-6-(1-amino-1,3-dihydrospiro[indene-2,4′-piperidin]-1′-yl)-3-(1-(benzofuran-3-yl)cyclopropyl)-1,5-dihydro-4H-pyrazolo[3,4-d]pyrimidin-4-one]
≤ 20 | N[C@@H]1c2ccccc2CC12CCN(c1nc3[nH]nc(C4(c5nncs5)CC4)c3c(=O)[nH]1)CC2 [Example 239, (S)-3-(1-(1,3,4-thiadiazol-2-yl)cyclopropyl)-6-(1-amino-1,3-dihydrospiro[indene-2,4′-piperidin]-1′-yl)-1,5-dihydro-4H-pyrazolo[3,4-d]pyrimidin-4-one]
≤ 20 | N[C@@H]1c2ccccc2CC12CCN(c1nc3[nH]nc(C4(c5ccc(F)c(F)c5)CC4)c3c(=O)[nH]1)CC2 [Example 20, (S)-6-(1-amino-1,3-dihydrospiro[indene-2,4′-piperidin]-1′-yl)-3-(1-(3,4-difluorophenyl)cyclopropyl)-1,5-dihydro-4H-pyrazolo[3,4-d]pyrimidin-4-one]
≤ 20 | Cn1cc2c(n1)CC(C)(C)C=C2c1n[nH]c2nc(N3CCC4(CC3)Cc3ccccc3[C@H]4N)[nH]c(=O)c12 [Example 153, (S)-6-(1-amino-1,3-dihydrospiro[indene-2,4′-piperidin]-1′-yl)-3-(2,6,6-trimethyl-6,7-dihydro-2H-indazol-4-yl)-1,5-dihydro-4H-pyrazolo[3,4-d]pyrimidin-4-one]
≤ 20 | N[C@@H]1c2ccccc2CC12CCN(c1nc3[nH]nc(C4(c5cccc6occc56)CC4)c3c(=O)[nH]1)CC2 [Example 80, (S)-6-(1-amino-1,3-dihydrospiro[indene-2,4′-piperidin]-1′-yl)-3-(1-(benzofuran-4-yl)cyclopropyl)-1,5-dihydro-4H-pyrazolo[3,4-d]pyrimidin-4-one]
≤ 20 | N[C@@H]1c2ccccc2CC12CCN(c1nc3[nH]nc(C4(c5ccccc5Cl)CC4)c3c(=O)[nH]1)CC2 [Example 12, (S)-6-(1-amino-1,3-dihydrospiro[indene-2,4′-piperidin]-1′-yl)-3-(1-(2-chlorophenyl)cyclopropyl)-1,5-dihydro-4H-pyrazolo[3,4-d]pyrimidin-4-one]
≤ 20 | Cc1cnc(C2(c3n[nH]c4nc(N5CCC6(CC5)Cc5ccccc5[C@H]6N)[nH]c(=O)c34)CC2)o1 [Example 244, (S)-6-(1-amino-1,3-dihydrospiro[indene-2,4′-piperidin]-1′-yl)-3-(1-(5-methyloxazol-2-yl)cyclopropyl)-1,5-dihydro-4H-pyrazolo[3,4-d]pyrimidin-4-one]
